Reference: patent publication US20080292619A1, “Pharmaceutical Composition Containing Meltrin Antagonist” (MOCHIDA PHARMACEUTICAL CO., LTD., priority 2004, published 2008)
In the oligonucleotide strings, read from the 5' end, every base follows the letter of its sugar. An asterisk marks phosphorothioate; unmarked linkages are phosphodiester. Other units and linkages are bracketed, terminal groups are in braces. A string of capitals states the bases alone. d = 2'-deoxy (DNA)

Legend:
human meltrin α RNA = test: Suppression of human meltrin α expression by antisense compound in RD cell (real time PCR); assay type: cell-based; settings: for suppression rate of expression, 50 nM / suppression rate of expression, 200 nM: RD cell, corrected by GAPDH; for RNase H-dependent activity of suppressing the meltrin α expression: 2′-methoxy modified form compared to the phosphorothioate form
In short: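 RD cells transfected with heat-denatured antisense oligodeoxynucleotide plus Lipofectin in Opti-MEM for 4 h at 37° C, then cultured 18 h. Meltrin α RNA quantified by TaqMan RT-PCR against plasmid standard curve, GAPDH-corrected; suppression vs untreated cells, rated +/++/+++ for ≥30/50/70%.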

human preadipocyte = test: Effect of antisense compound on adipocyte proliferation and differentiation (Adipo Red); assay type: cell-based; settings: human adipocyte differentiation
Protocol: First, human preadipocyte (Human Preadipocytes-sq POIETICS #PT-5020, Sanko Junyaku Co., Ltd.) was suspended in growth medium (#PT-8200, Sanko Junyaku Co., Ltd.), and after adding the suspension to a 96 well culture plate at 1×10^4 cells/well/100 μL, the cells were cultured overnight at 37° C. in the presence of 5% CO2.
The preadipocyte was cultured overnight, and after washing the preadipocyte twice with serum-free DMEM, Opti-MEM was added at 80 μL/well.
Gene transfection reagent Lipofectin was diluted with Opti-MEM to 20 μg/mL, and the dilution was allowed to stand at room temperature for 30 minutes. Next, the antisense oligodeoxynucleotide synthesized as described above was heated at 90° C. for 3 minutes, and after quenching on ice, diluted with Opti-MEM to a concentration 10 times higher than the final concentration. Equal amounts of the Lipofectin in Opti-MEM and the antisense oligodeoxynucleotide in Opti-MEM were mixed, and the mixture was incubated at room temperature for 15 minutes and added to 96 well plate at 20 μL/well. After incubating at 37° C. for 4 hours in the presence of 5% CO2, it was used for examination as described below.
The differentiation medium was prepared by using growth medium (#PT-8200, Sanko Junyaku Co., Ltd.) and supplement kit (PGM Single Quots, #PT-9500, Sanko Junyaku Co., Ltd.) according to the instruction of the kit. Next, the culture supernatant containing the Lipofectin was removed from the 96 well plate prepared in the above (2), and the plate was washed twice with serum-free DMEM, and the differentiation medium prepared as described above was added at 100 μL/well. The plate was then incubated at 37° C. for 5 days to 15 days in the presence of 5% CO2.
Accumulation of the neutral fat in the adipocyte was determined by fluorometry using Adipo Red stain.
After taking the 96 well plate out of the CO2 incubator, the plate was allowed to stand until it reached room temperature. The plate was centrifuged at 300 g (1200 rpm) for 10 minutes at room temperature to remove the medium. Next, after gently washing with PBS (SIGMA) at 200 μL/well, PBS was added to the well at 200 μL/well. Next, Adipo Red Assay Reagent (Adipo Red, Cat. #PT-7009, Lot.3F0497, A Cambrex Company) was added at 5 μL/well, and the plate was allowed to stand at room temperature for at least 10 minutes to thereby stain the neutral fat accumulated in the adipocyte. The fat accumulation was determined by measuring fluorescence intensity in a fluorometer at an excitation wavelength of 485 nm and an emission wavelength of 535 nm.
The suppression rate of the adipocyte differentiation was calculated by converting the fluorescence intensity of the well transfected with the antisense compound in relation to the fluorescence intensity of the well without transfection with the antisense compound which was assumed as 100%. The result was rated “+” when the suppression rate was at least 25%, “++” when the suppression rate was at least 50%, and “+++” when the suppression rate was at least 75%.

H143 + 15: gcttctgaggggggtttggc (GCTTCTGAGGGGGGTTTGGC; antisense; DNA, all phosphorothioate, methylation of C not given here)
suppression rate of expression, 50 nM (human meltrin α RNA): +++ (“+++” when the suppression rate was at least 70%) | Score (suppressing the human adipocyte differentiation) (human preadipocyte): ++ (“++” when the suppression rate was at least 50%)

H139 + 14: taggtgcacgtggggcccgg (TAGGTGCACGTGGGGCCCGG; antisense; DNA, all phosphorothioate, methylation of C not given here)
suppression rate of expression, 50 nM (human meltrin α RNA): ++ (“++” when the suppression rate was at least 50%) | Score (suppressing the human adipocyte differentiation) (human preadipocyte): ++ (“++” when the suppression rate was at least 50%)

H131: caaggtggccgaggtgagcc (CAAGGTGGCCGAGGTGAGCC; antisense; DNA, all phosphorothioate, methylation of C not given here)
suppression rate of expression, 50 nM (human meltrin α RNA): ++ (“++” when the suppression rate was at least 50%) | suppression rate of expression, 200 nM (human meltrin α RNA): +++ (“+++” when the suppression rate was at least 70%) | RNase H-dependent activity of suppressing the meltrin α expression (human meltrin α RNA): reduced activity of suppressing the meltrin α expression | Score (suppressing the human adipocyte differentiation) (human preadipocyte): +++ (“+++” when the suppression rate was at least 75%)

H151: gtgtgggtggatctgggcac (dG*dT*dG*dT*dG*dG*dG*dT*dG*dG*dA*dT*dC*dT*dG*dG*dG*dC*dA*dC)
suppression rate of expression, 50 nM (human meltrin α RNA): ++ (“++” when the suppression rate was at least 50%) | suppression rate of expression, 200 nM (human meltrin α RNA): +++ (“+++” when the suppression rate was at least 70%) | RNase H-dependent activity of suppressing the meltrin α expression (human meltrin α RNA): reduced activity of suppressing the meltrin α expression | Score (suppressing the human adipocyte differentiation) (human preadipocyte): ++ (“++” when the suppression rate was at least 50%)

H144 + 18: ggccagaggatctgcaggca (GGCCAGAGGATCTGCAGGCA; antisense; DNA, all phosphorothioate, methylation of C not given here)
suppression rate of expression, 50 nM (human meltrin α RNA): +++ (“+++” when the suppression rate was at least 70%) | RNase H-dependent activity of suppressing the meltrin α expression (human meltrin α RNA): reduced activity of suppressing the meltrin α expression | Score (suppressing the human adipocyte differentiation) (human preadipocyte): ++ (“++” when the suppression rate was at least 50%)

H130: tgacagggttggaagccacg (TGACAGGGTTGGAAGCCACG; antisense; DNA, all phosphorothioate, methylation of C not given here)
suppression rate of expression, 50 nM (human meltrin α RNA): ++ (“++” when the suppression rate was at least 50%) | suppression rate of expression, 200 nM (human meltrin α RNA): +++ (“+++” when the suppression rate was at least 70%) | RNase H-dependent activity of suppressing the meltrin α expression (human meltrin α RNA): reduced activity of suppressing the meltrin α expression | Score (suppressing the human adipocyte differentiation) (human preadipocyte): +++ (“+++” when the suppression rate was at least 75%)

H135 + 15: gggtctgctgatgtcaacat (GGGTCTGCTGATGTCAACAT; antisense; DNA, all phosphorothioate, methylation of C not given here)
Score (suppressing the human adipocyte differentiation) (human preadipocyte): + (“+” when the suppression rate was at least 25%)

H187: ggctggtcagctcagggtca (dG*dG*dC*dT*dG*dG*dT*dC*dA*dG*dC*dT*dC*dA*dG*dG*dG*dT*dC*dA; antisense)
suppression rate of expression, 200 nM (human meltrin α RNA): +++ (“+++” when the suppression rate was at least 70%)

H033: gtgacccagaattaccgtgt (GTGACCCAGAATTACCGTGT; antisense; DNA, all phosphorothioate, methylation of C not given here)
suppression rate of expression, 200 nM (human meltrin α RNA): + (“+” when the suppression rate was at least 30%)

H117: gcagtggcagttcttcctgt (GCAGTGGCAGTTCTTCCTGT; antisense; DNA, all phosphorothioate, methylation of C not given here)
suppression rate of expression, 200 nM (human meltrin α RNA): + (“+” when the suppression rate was at least 30%)
